Structures are written as SMILES.

The subject of data set [1] is seizures. The conditions noted are these: 200 mg/day pure CBD, twelve institutionalized adult patients, open label; cited from earlier work.
Data set [2] has as its system seizures associated with Aicardi Syndrome. In words: Expanded access compassionate use program: CBD added to baseline AED regimen, seizure frequency from seizure diaries. In kind it is in vivo, human. Here is the method:
Of 137 children and young adults with severe, childhood onset treatment-resistant epilepsy (TRE), 14 suffered from Aicardi syndrome. These subjects were tested with a highly purified extract of cannabidiol (CBD) obtained from a cannabis plant. The participants in the study were part of an expanded access compassionate use program for CBD.
All of these patients diagnosed with Aicardi Syndrome presented with multiple seizure types which included
focal seizures with impairment; infantile spasm; clonic seizures; tonic seizures; tonic-clonic seizures; atonic seizures; myoclonic seizures; absence seizures; and focal seizures evolving to secondary generalised seizures.
All patients entered a baseline period of 4 weeks when parents/caregivers kept prospective seizure diaries, noting all countable motor seizure types.
The patients then received a highly purified CBD extract (greater than 98% CBD w/w) in sesame oil, of known and constant composition, at a dose of 5 mg/kg/day in addition to their baseline anti-epileptic drug (AED) regimen.
Laboratory testing for hematologic, liver, kidney function, and concomitant AED levels was performed at baseline, and after CBD therapy.
All patients were taking at least two concomitant anti-epileptic drugs. These included clobazam; levetiracetam; topiramate; stiripentol; phenobarbital; lacsamide; valproic acid; zonisamide. The average number of concomitant antiepileptic drugs being taken was 2.7.
There were 14 children and young adult patients who received at least 3 months of treatment all of whom suffered from treatment-resistant epilepsy which is characterised by Aicardi Syndrome.
The change from baseline in the number of different seizures and total number of seizures after 12 weeks treatment are summarized in Table 7 below.

The subject of another data set is Lennox-Gastaut syndrome. The note with it: one child with Lennox-Gastaut syndrome, CBD in an oily solution; cited from earlier work.
The test system of data set [3] is seizures after pro-convulsant drugs or an electric current. The note with it: mice; cited from earlier work.
A short description of data set [4]: Solubility of drug substance in water. In kind it is physicochemical. The text has this:
The drug substance, CBD is insoluble in water. Sesame oil was selected as an excipient to solubilize the drug substance.

A further data set has as its system generalized epilepsy. The note with it: eight adult patients with generalized epilepsy; cited from earlier work.
Data set [5] relates to seizures. The conditions noted are these: 200 mg/day pure CBD, four adult patients; seizure frequency unchanged in the remainder; cited from earlier work.
Data set [6] has as its system seizures. The conditions noted are these: Consroe et al., 1977; cited from earlier work.
Where [7] appears, read: 14 Aicardi Syndrome patients, after 12 weeks treatment, CBD 5 up to 25 mg/kg/day plus concomitant AED.
[8] abbreviates: Aicardi Syndrome patients, after 3 months of therapy.

On to `C=C(C)[C@@H]1CCC(C)=C[C@H]1c1c(O)cc(CCCCC)cc1O` [CBD, Cannabidiol], for which the controlling seizures entry in the data set with seizures [1] is listed as “ineffective”. In data set [2] (setting [7]), the “Average change in baseline (%) Convulsive seizures” value was −77%, the “Average change in baseline (%) Focal seizures with impairment” value is on record as −62%, the “Average change in baseline (%) Infantile spasm” value is −55.5% and the “Average change in baseline (%) Total seizures” value is −69%. In addition, in data set [2] (setting [8]), the “reduction in convulsive seizures” value is listed as 77%, the “reduction in focal seizures with impairment” value was determined as 62% and the “reduction of infantile spasms” value was 55.5%. Besides, the “reduction in total seizures” value in data set [2] (Aicardi Syndrome patients, after 3 months of therapy, average decrease) is given as 69%. Also, the “focal onset seizures evolving to secondary generalisation” value in data set [2] (one patient, week 12, 47 seizures at baseline, earlier stage of program) was found to be 17 per month. This compound also gave a tonic-clonic seizures in data set [2] (other patient, week 12, 7 seizures at baseline, earlier stage of program) of 5 per month. The same compound showed a tonic seizures in data set [2] (other patient, week 12, 67 seizures at baseline, earlier stage of program) of 6 per month. Also, the seizure frequency entry with Lennox-Gastaut syndrome is reported as “improvement”. Further, in data set [3], the prevention of seizures entry is on record as “able to prevent seizures”. In addition, the solubility in water entry in data set [4] is reported as “insoluble”. Besides, in the data set with generalized epilepsy, the “patients with marked reduction of seizures” value was 4. In the data set with seizures [5], the “patients who became seizure free” value is “two of the four”.
In the case of `CCCCCc1cc(O)c2c(c1)OC(C)(C)[C@@H]1CCC(C)=C[C@@H]21` [THC, Tetrahydro- cannabinol], the pro-convulsant effect entry in the data set with seizures [6] is “pro-convulsant”.

The values above are taken from US10765643B2, “Use of cannabidiol in the treatment of epilepsy” (GW Pharma Limited, priority 2014, dated 2020).
